Laboratory results from BigSolDB 2.1.

O=[N+]([O-])c1cn[nH]c1
solubility (mole fraction)
Settings | in acetonitrile | in ethanol | in methanol | in water
278.15 K | 0.0478 | 0.037 | 0.0491 | 0.00209
280.65 K | 0.0491 | 0.0389 | 0.0502 | 0.00218
283.15 K | 0.0508 | 0.0405 | 0.0517 | 0.00231
285.65 K | 0.0524 | 0.0429 | 0.0532 | 0.00248
288.15 K | 0.0541 | 0.045 | 0.0558 | 0.00268
290.65 K | 0.0558 | 0.047 | 0.0583 | 0.00286
293.15 K | 0.0576 | 0.0494 | 0.061 | 0.00315
295.65 K | 0.0595 | 0.0521 | 0.0638 | 0.00339
298.15 K | 0.0623 | 0.0549 | 0.067 | 0.0037
300.65 K | 0.0648 | 0.0582 | 0.0698 | 0.00401
303.15 K | 0.0674 | 0.0614 | 0.073 | 0.0044
305.65 K | 0.0703 | 0.0647 | 0.0758 | 0.00477
308.15 K | 0.0731 | 0.0677 | 0.0789 | 0.00526
310.65 K | 0.0758 | 0.0714 | 0.0817 | 0.00586
313.15 K | 0.079 | 0.0747 | 0.0848 | 0.00653
315.65 K | 0.0828 | 0.0784 | 0.0885 | 0.00724
318.15 K | 0.0872 | 0.0828 | 0.092 | 0.00802
